Data on 7 compounds can be found in ChEMBL document CHEMBL1151273, “Cytotoxic furostanol saponins and a megastigmane glucoside from tribulus parvispinus” (J Nat Prod, 2005).

Active and inactive are the calls of the source. No cut-off for these calls is given here.

In test [1] the test system is HepG2. The experiment in a line: Cytotoxicity against human HepG2 cells after 48 hrs by acid phosphatase method. The settings on record: HepG2, 48 h. In kind it is functional, cell-based.
For test [2], the system named is MCF7. Description: Cytotoxicity against human MCF7 cells after 48 hrs by acid phosphatase method. The test is classed as functional, cell-based. The settings on record: MCF7, 48 h.
The subject of test [3] is U-937. The experiment in a line: Cytotoxicity against human U937 cells after 48 hrs by WST1 test. The test is classed as functional, cell-based. The settings on record: U-937, 48 h.
The subject of test [4] is U-937. Description: Induction of apoptosis in human U937 cells assessed as total LDH activity at IC50 by spectrophotometric method. The test is classed as functional.
Test [5] concerns U-937. The experiment in a line: Induction of apoptosis in human U937 cells assessed as hypodiploid region at IC50 measured by propidium iodide incorporation by flow cytometry. The test is classed as functional. For orientation: In flow cytometry, cells or beads pass a laser one at a time.
For test [6], the system named is U-937. Description: Cytotoxicity against human U937 cells assessed as reduction of proliferation at 0.1 uM after 24 hrs. In kind it is functional, cell-based.
Test [7] has as its system U-937. Description: Cytotoxicity against human U937 cells assessed as reduction of proliferation at 0.1 uM after 48 hrs. The test is classed as functional, cell-based.
The subject of test [8] is U-937. Description: Cytotoxicity against human U937 cells assessed as reduction of proliferation at 0.5 uM after 24 hrs. In kind it is functional, cell-based.

Turning to `CO[C@]1(CC[C@@H](C)CO[C@@H]2O[C@H](CO)[C@@H](O)[C@H](O)[C@H]2O)O[C@H]2C[C@H]3[C@@H]4CC[C@H]5C[C@@H](O[C@@H]6O[C@H](CO)[C@H](O[C@@H]7O[C@H](CO)[C@@H](O)[C@H](O[C@@H]8OC[C@@H](O)[C@H](O)[C@H]8O)[C@H]7O[C@@H]7O[C@H](CO)[C@H](O)[C@H](O)[C@H]7O)[C@H](O)[C@H]6O)[C@H](O)C[C@]5(C)[C@H]4CC[C@]3(C)[C@H]2[C@@H]1C` [22-O-METHYLPARVISPINOSIDE A], the IC50 (usually the concentration that gives 50% inhibition) was determined as 30 µM in test [1], 50 µM in test [2] and 1 µM in test [3]. Moreover, the Activity in test [4] came to 38%; in test [5], 9%.

As for `CO[C@]1(CC[C@@H](C)CO[C@@H]2O[C@H](CO)[C@@H](O)[C@H](O)[C@H]2O)O[C@H]2C[C@H]3[C@@H]4CC[C@H]5C[C@@H](O[C@@H]6O[C@H](CO)[C@H](O[C@@H]7O[C@H](CO)[C@@H](O)[C@H](O[C@@H]8OC[C@@H](O)[C@H](O)[C@H]8O)[C@H]7O[C@@H]7O[C@H](CO)[C@H](O)[C@H](O)[C@H]7O)[C@H](O)[C@H]6O)CC[C@]5(C)[C@H]4CC[C@]3(C)[C@H]2[C@@H]1C` [22-O-METHYLPARVISPINOSIDE B], the figures for the IC50 in test [1], in test [2] and in test [3] were 30 µM, 40 µM and 2 µM, respectively. Moreover, the Activity turned out to be 50% in test [4] and 3% in test [5].

Turning to `C[C@@H]1CC[C@@]2(OC1)O[C@H]1C[C@H]3[C@@H]4CC[C@H]5C[C@@H](O[C@@H]6O[C@H](CO)[C@H](O[C@@H]7O[C@H](CO)[C@@H](O)[C@H](O[C@@H]8OC[C@@H](O)[C@H](O)[C@H]8O)[C@H]7O[C@@H]7O[C@H](CO)[C@H](O)[C@H](O)[C@H]7O)[C@H](O)[C@H]6O)CC[C@]5(C)[C@H]4CC[C@]3(C)[C@H]1[C@@H]2C` [GITONIN], the figures for the IC50 in test [1], in test [2] and in test [3] were 3 µM, 3 µM and 0.1 µM, respectively. Also, the result in test [6] and in test [7] was Active. Also, the values for the Activity in test [4] and in test [5] were 25% and 20%, respectively.

In the case of `C[C@H](CC[C@@]1(O)O[C@H]2C[C@H]3[C@@H]4CC[C@H]5C[C@@H](O[C@@H]6O[C@H](CO)[C@H](O[C@@H]7O[C@H](CO)[C@@H](O)[C@H](O[C@@H]8OC[C@@H](O)[C@H](O)[C@H]8O)[C@H]7O[C@@H]7O[C@H](CO)[C@H](O)[C@H](O)[C@H]7O)[C@H](O)[C@H]6O)[C@H](O)C[C@]5(C)[C@H]4CC[C@]3(C)[C@H]2[C@@H]1C)CO[C@@H]1O[C@H](CO)[C@@H](O)[C@H](O)[C@H]1O` [PARVISPINOSIDE A], the half-inhibitory concentration (IC50) in test [1] is over 100 µM; in test [2], over 100 µM; in test [3] it was 30 µM. Further, the Activity is recorded as 28% in test [4] and 32% in test [5].

On to `C[C@H](CC[C@@]1(O)O[C@H]2C[C@H]3[C@@H]4CC[C@H]5C[C@@H](O[C@@H]6O[C@H](CO)[C@H](O[C@@H]7O[C@H](CO)[C@@H](O)[C@H](O[C@@H]8OC[C@@H](O)[C@H](O)[C@H]8O)[C@H]7O[C@@H]7O[C@H](CO)[C@H](O)[C@H](O)[C@H]7O)[C@H](O)[C@H]6O)CC[C@]5(C)[C@H]4CC[C@]3(C)[C@H]2[C@@H]1C)CO[C@@H]1O[C@H](CO)[C@@H](O)[C@H](O)[C@H]1O` [PARVISPINOSIDE B], for which the half-inhibitory concentration (IC50) was over 100 µM in test [1], 94 µM in test [2] and 0.5 µM in test [3]. Besides, the result in test [8] and in test [7] was Active. Moreover, the Activity in test [4] was determined as 27%; in test [5], 26%.

In the case of `CC1=CC(=O)CC(C)(C)[C@@]1(O)/C=C/C(O)CO[C@@H]1O[C@H](CO)[C@@H](O)[C@H](O)[C@H]1O` (stereo not given in full) [PARVISPINOSIDE C], the IC50 was over 100 µM in test [1], 80 µM in test [2] and 15 µM in test [3].

Take `Oc1ccc(/C=C/c2cc(O)cc(O)c2)cc1` [RESVERATROL]: the IC50 was determined as 50 µM in test [1], 100 µM in test [2] and 17 µM in test [3].
